Patent publication US20260262643A1, “HERBICIDAL BENZOXAZINES” (FMC CORPORATION, priority 2022, published 2026)

Assays:
blackgrass [1] = test: Test C preemergence; type: in vivo, Alopecurus myosuroides; conditions: 0 to 100 scale (0 no effect, 100 complete control)
Method in brief: (§1)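 Visual injury score, 0–100 (100 = complete control), taken 10 days after treatment relative to untreated controls. Pre: directed spray onto soil over sown seeds. Post: foliar spray at one- to two-leaf stage, 2–10 cm. Solvent/surfactant formulation; loam–sand soil; greenhouse.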

corn [2] = test: Test C postemergence; type: in vivo, Zea mays; conditions: 10 days
Method in brief: as §1

horseweed = test: Test C postemergence; type: in vivo, Erigeron canadensis; conditions: 10 days
Method in brief: as §1

ryegrass, Italian [3] = test: Test C postemergence; type: in vivo, Lolium multiflorum; conditions: 125 g ai/ha, postemergence, 10 days; 0 to 100 scale, 0 no effect, 100 complete control
Method in brief: as §1

ryegrass, Italian [4] = test: Test C preemergence; type: in vivo, Lolium multiflorum; conditions: preemergence, 0 to 100 scale (0 no effect, 100 complete control)
Method in brief: as §1

sedge, umbrella = test: Test D flooded paddy test; type: in vivo, Cyperus difformis; conditions: 250 g ai/ha, applied to paddy water, visual rating after 13 to 14 days, scale 0 to 100 (0 no effect, 100 complete control)
Method in brief: (§2)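 Seedlings reached the 2-leaf stage, then pots were flooded to 3 cm over the soil surface. Compound was applied into the water, depth was maintained, and plants stayed in the greenhouse 13 to 14 days before visual scoring (0–100) relative to controls.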

green foxtail [5] = test: Test C preemergence; type: in vivo, Setaria viridis; conditions: preemergence, 0 to 100 scale (0 no effect, 100 complete control)
Method in brief: as §1

wheat [6] = test: Test C preemergence; type: in vivo, Triticum aestivum; conditions: preemergence, 0 to 100 scale (0 no effect, 100 complete control)
Method in brief: as §1

barnyardgrass [7] = test: Test C postemergence; type: in vivo, Echinochloa crusgalli; conditions: 10 days
Method in brief: as §1

soybean [8] = test: Test C preemergence; type: in vivo, Glycine max; conditions: preemergence, 0 to 100 scale (0 no effect, 100 complete control)
Method in brief: as §1

pigweed, palmer [9] = test: Test C postemergence; type: in vivo, Amaranthus palmeri; conditions: 125 g ai/ha, postemergence, 10 days; 0 to 100 scale, 0 no effect, 100 complete control
Method in brief: as §1

blackgrass [10] = test: Test C postemergence; type: in vivo, Alopecurus myosuroides; conditions: 10 days
Method in brief: as §1

ducksalad = test: Test D flooded paddy test; type: in vivo, Heteranthera limosa; conditions: 250 g ai/ha, applied to paddy water, visual rating after 13 to 14 days, scale 0 to 100 (0 no effect, 100 complete control)
Method in brief: as §2

barnyardgrass [11] = test: Test C preemergence; type: in vivo, Echinochloa crusgalli; conditions: 0 to 100 scale (0 no effect, 100 complete control)
Method in brief: as §1

galium = test: Test C postemergence; type: in vivo, Galium aparine; conditions: 10 days
Method in brief: as §1

pigweed, palmer [12] = test: Test C preemergence; type: in vivo, Amaranthus palmeri; conditions: preemergence, 0 to 100 scale (0 no effect, 100 complete control)
Method in brief: as §1

kochia [13] = test: Test C preemergence; type: in vivo, Bassia scoparia; conditions: preemergence, 0 to 100 scale (0 no effect, 100 complete control)
Method in brief: as §1

kochia [14] = test: Test C postemergence; type: in vivo, Bassia scoparia; conditions: 125 g ai/ha, postemergence, 10 days; 0 to 100 scale, 0 no effect, 100 complete control
Method in brief: as §1

soybean [15] = test: Test C postemergence; type: in vivo, Glycine max; conditions: 125 g ai/ha, postemergence, 10 days; 0 to 100 scale, 0 no effect, 100 complete control
Method in brief: as §1

barnyardgrass [16] = test: Test D flooded paddy test; type: in vivo, Echinochloa crus-galli; conditions: 250 g ai/ha, applied to paddy water, visual rating after 13 to 14 days, scale 0 to 100 (0 no effect, 100 complete control)
Method in brief: as §2

corn [17] = test: Test C preemergence; type: in vivo, Zea mays; conditions: preemergence, 0 to 100 scale (0 no effect, 100 complete control)
Method in brief: as §1

oat, wild [18] = test: Test C postemergence; type: in vivo, Avena fatua; conditions: 125 g ai/ha, postemergence, 10 days; 0 to 100 scale, 0 no effect, 100 complete control
Method in brief: as §1

rice = test: Test D flooded paddy test; type: in vivo, Oryza sativa; conditions: 250 g ai/ha, applied to paddy water, visual rating after 13 to 14 days, scale 0 to 100 (0 no effect, 100 complete control)
Method in brief: as §2

ragweed [19] = test: Test C preemergence; type: in vivo, Ambrosia artemisiifolia; conditions: preemergence, 0 to 100 scale (0 no effect, 100 complete control)
Method in brief: as §1

green foxtail [20] = test: Test C postemergence; type: in vivo, Setaria viridis; conditions: 10 days
Method in brief: as §1

wheat [21] = test: Test C postemergence; type: in vivo, Triticum aestivum; conditions: 125 g ai/ha, postemergence, 10 days; 0 to 100 scale, 0 no effect, 100 complete control
Method in brief: as §1

ragweed [22] = test: Test C postemergence; type: in vivo, Ambrosia artemisiifolia; conditions: 125 g ai/ha, postemergence, 10 days; 0 to 100 scale, 0 no effect, 100 complete control
Method in brief: as §1

oat, wild [23] = test: Test C preemergence; type: in vivo, Avena fatua; conditions: preemergence, 0 to 100 scale (0 no effect, 100 complete control)
Method in brief: as §1

[24] = Preemergence, 500 g ai/ha, visual rating after 10 days
[25] = Test C, preemergence, 125 g ai/ha
[26] = 125 g ai/ha, postemergence, 0 to 100 scale, 0 no effect, 100 complete control
[27] = Postemergence, 500 g ai/ha, visual 0 to 100 scale (0 no effect, 100 complete control)

For Cc1ccc(-n2cnc(CC3CC3)n2)cc1C(=O)N1C[C@H](C)Oc2c(Cl)cccc21 [Compound 273], the “Plant response rating, Blackgrass” value (blackgrass [1]; [24]) was 50, the “Blackgrass plant response rating” value (blackgrass [1]; [25]) was 0 and the “Plant response rating, Corn” value (corn [2]; [26]) was 10. For the same compound, the “Plant response rating, Corn” value (corn [2]; [27]) was 30, the “Plant response rating, Horseweed” value (horseweed; [26]) was 0 and the “Plant response rating, Horseweed” value (horseweed; [27]) was 40. The “Plant response rating, Ryegrass, Italian” value (ryegrass, Italian [3]) was 0, the “Ryegrass, Italian plant response rating” value (ryegrass, Italian [4]; 500 g ai/ha) was 90 and the “Ryegrass, Italian plant response rating” value (ryegrass, Italian [4]; Test C, 125 g ai/ha) was 70. The “Plant response rating, Sedge, Umbrella (Flood)” value (sedge, umbrella) was 40, the “Foxtail, Green plant response rating” value (green foxtail [5]; 500 g ai/ha) was 100 and the “Foxtail, Green plant response rating” value (green foxtail [5]; Test C, 125 g ai/ha) was 100. The “Wheat plant response rating” value (wheat [6]; 500 g ai/ha) was 40, the “Wheat plant response rating” value (wheat [6]; Test C, 125 g ai/ha) was 0 and the “Plant response rating, Barnyardgrass” value (barnyardgrass [7]; [26]) was 30. For the same compound, the “Plant response rating, Barnyardgrass” value (barnyardgrass [7]; [27]) was 70, the “Soybean plant response rating” value (soybean [8]; 500 g ai/ha) was 70 and the “Soybean plant response rating” value (soybean [8]; Test C, 125 g ai/ha) was 10. The “Plant response rating, Pigweed, Palmer” value (pigweed, palmer [9]) was 90, the “Plant response rating, Blackgrass” value (blackgrass [10]; [26]) was 10 and the “Plant response rating, Blackgrass” value (blackgrass [10]; [27]) was 80. The “Plant response rating, Ducksalad (Flood)” value (ducksalad) was 15, the “Plant response rating, Barnyardgrass” value (barnyardgrass [11]; [24]) was 100 and the “Barnyardgrass plant response rating” value (barnyardgrass [11]; [25]) was 40. For the same compound, the “Plant response rating, Galium” value (galium; [26]) was 70, the “Plant response rating, Galium” value (galium; [27]) was 100 and the “Pigweed, Palmer plant response rating” value (pigweed, palmer [12]; 500 g ai/ha) was 100. The “Pigweed, Palmer plant response rating” value (pigweed, palmer [12]; Test C, 125 g ai/ha) was 90, the “Kochia plant response rating” value (kochia [13]; 500 g ai/ha) was 90 and the “Kochia plant response rating” value (kochia [13]; Test C, 125 g ai/ha) was 60. The “Plant response rating, Kochia” value (kochia [14]) was 70, the “Plant response rating, Soybean” value (soybean [15]) was 100 and the “Plant response rating, Barnyardgrass (Flood)” value (barnyardgrass [16]) was 0. The “Corn plant response rating” value (corn [17]; 500 g ai/ha) was 10, the “Corn plant response rating” value (corn [17]; Test C, 125 g ai/ha) was 0 and the “Plant response rating, Oat, Wild” value (oat, wild [18]) was 0. The “Plant response rating, Rice (Flood)” value (rice) was 0, the “Ragweed plant response rating” value (ragweed [19]; 500 g ai/ha) was 0 and the “Ragweed plant response rating” value (ragweed [19]; Test C, 125 g ai/ha) was 0. For the same compound, the “Plant response rating, Foxtail, Green” value (green foxtail [20]; [26]) was 40, the “Plant response rating, Foxtail, Green” value (green foxtail [20]; [27]) was 90 and the “Plant response rating, Wheat” value (wheat [21]) was 10. For the same compound, the “Plant response rating, Ragweed” value (ragweed [22]) was 40, the “Oat, Wild plant response rating” value (oat, wild [23]; 500 g ai/ha) was 80 and the “Oat, Wild plant response rating” value (oat, wild [23]; Test C, 125 g ai/ha) was 20.
